Measurements as given in ChEMBL document CHEMBL1152357, “Synthesis and biological activity of heteroaryl 3-(1,1-dioxo-2H-(1,2,4)-benzothiadizin-3-yl)-4-hydroxy-2(1H)-quinolinone derivatives as hepatitis C virus NS5B polymerase inhibitors” (Bioorg Med Chem Lett, 2009).

Tests used:
[1] = tested on: Hepatitis C virus; assay: Inhibition of HCV 1b NS5B polymerase expressed in Sf9 cells; set-up: species or system Hepatitis C virus subtype 1b
[2] = tested on: Hepatitis C virus; assay: Antiviral activity against HCV 1b infected in human hepatoma cells by replicon assay; type: functional, organism-based, Hepacivirus hominis; conditions: genotype 1b
[3] = target: Albumin (Homo sapiens, UniProt P02768); assay: Binding affinity to human serum albumin; type: ADME; conditions: isolated protein
Sequence of Albumin (P02768 whole entry): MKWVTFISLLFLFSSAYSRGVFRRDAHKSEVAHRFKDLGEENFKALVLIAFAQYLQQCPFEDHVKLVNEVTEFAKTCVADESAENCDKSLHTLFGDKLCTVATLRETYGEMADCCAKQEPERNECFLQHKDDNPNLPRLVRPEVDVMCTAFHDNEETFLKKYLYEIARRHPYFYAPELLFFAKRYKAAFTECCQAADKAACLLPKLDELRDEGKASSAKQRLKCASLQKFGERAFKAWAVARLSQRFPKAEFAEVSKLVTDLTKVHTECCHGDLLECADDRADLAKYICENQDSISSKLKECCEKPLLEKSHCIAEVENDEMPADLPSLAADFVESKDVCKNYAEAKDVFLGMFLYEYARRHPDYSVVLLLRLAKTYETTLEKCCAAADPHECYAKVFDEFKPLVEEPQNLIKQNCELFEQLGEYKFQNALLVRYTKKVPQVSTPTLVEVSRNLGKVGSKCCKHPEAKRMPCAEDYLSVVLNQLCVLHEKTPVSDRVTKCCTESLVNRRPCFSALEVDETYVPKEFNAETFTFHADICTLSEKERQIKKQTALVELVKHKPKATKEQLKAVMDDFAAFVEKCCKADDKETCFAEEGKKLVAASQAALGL

Compound | IC50 [1] [µM] | IC50 [2] [µM] | Activity [3] [%]
CCN1CCC2=C(C1)S(=O)(=O)N=C(c1c(O)c3ccccc3n(CCC(C)C)c1=O)N2 | 0.679 | 40 | 97.9
C[C@@H](Oc1ccc2c(c1)S(=O)(=O)N=C(c1c(O)c3cccnc3n(CCC3CC3)c1=O)N2)C(N)=O | < 0.005 | – | 97.8
CC(C)CCn1c(=O)c(C2=NS(=O)(=O)c3ccccc3N2)c(O)c2sccc21 | > 0.048 | 0.942 | > 99.9
Cc1nn(C)c2c1S(=O)(=O)N=C(c1c(O)c3ccccc3n(CCC(C)C)c1=O)N2 | 0.2 | > 20 | 98.5
CC(C)CCn1c(=O)c(C2=NS(=O)(=O)c3ccccc3N2)c(O)c2cnn(C)c21 | 3.34 | – | 97
NC(=O)COc1ccc2c(c1)S(=O)(=O)N=C(c1c(O)c3cccnc3n(CCC3CC3)c1=O)N2 | < 0.005 | 0.051 | 97.8
CC(C)CCn1c(=O)c(C2=NS(=O)(=O)c3c(cc[nH]c3=O)N2)c(O)c2ccccc21 | 0.016 | 13.7 | –
CC(=O)N1CCC2=C(C1)S(=O)(=O)N=C(c1c(O)c3ccccc3n(CCC(C)C)c1=O)N2 | 1.53 | – | 98
CC(C)CCn1c(=O)c(C2=NS(=O)(=O)c3cnccc3N2)c(O)c2ccccc21 | 0.02 | 0.226 | 99
CC(C)CCn1c(=O)c(C2=NS(=O)(=O)c3cc(Cl)sc3N2)c(O)c2ccccc21 | 0.057 | > 20 | –
CC(C)CCn1c(=O)c(C2=NS(=O)(=O)C3=C(CCN(CCC(N)=O)C3)N2)c(O)c2ccccc21 | 0.288 | > 20 | 98
CC(C)CCn1c(=O)c(C2=NS(=O)(=O)c3c(sc(Cl)c3Br)N2)c(O)c2ccccc21 | 3.02 | – | –
CC(C)CCn1c(=O)c(C2=NS(=O)(=O)C3=C(CCN(CCCN)C3)N2)c(O)c2ccccc21 | 0.728 | – | 98.3
CC(C)CCn1c(=O)c(C2=NS(=O)(=O)c3cccnc3N2)c(O)c2ccccc21 | 0.051 | 1.68 | –
CNC(=O)N1CCC2=C(C1)S(=O)(=O)N=C(c1c(O)c3ccccc3n(CCC(C)C)c1=O)N2 | 0.774 | – | 98.2
CC(C)CCn1c(=O)c(C2=NS(=O)(=O)c3cc(O)ccc3N2)c(O)c2sccc21 | 0.016 | 1.19 | 99
CC(C)CCn1c(=O)c(C2=NS(=O)(=O)c3ccccc3N2)c(O)c2cn[nH]c21 | 4.94 | – | 97.6
CC(C)CCn1c(=O)c(C2=NS(=O)(=O)c3cc(O)ccc3N2)c(O)c2ccsc21 | 0.025 | 0.471 | 99.1
CC(C)CCn1c(=O)c(C2=NS(=O)(=O)c3ncccc3N2)c(O)c2ccccc21 | 0.031 | 0.743 | 98.7
CC(C)CCn1c(=O)c(C2=NS(=O)(=O)c3ccccc3N2)c(O)c2ccccc21 | – | 0.417 | > 99.9
CC(C)CCn1c(=O)c(C2=NS(=O)(=O)c3ccccc3N2)c(O)c2cc(Br)sc21 | 1.17 | – | > 99.9
CC(C)CCn1c(=O)c(C2=NS(=O)(=O)c3ccccc3N2)c(O)c2cc(-c3ccccc3)sc21 | > 30 | – | –
CC(C)CCn1c(=O)c(C2=NS(=O)(=O)c3cc(OCC(N)=O)ccc3N2)c(O)c2ccsc21 | < 0.005 | 0.238 | 98.7
CC(C)CCn1c(=O)c(C2=NS(=O)(=O)c3ccccc3N2)c(O)c2cccnc21 | 0.212 | 1.36 | > 99.9
CC(C)CCn1c(=O)c(C2=NS(=O)(=O)C3=C(CCNC3)N2)c(O)c2ccccc21 | 0.604 | 12.2 | 98.2
CC(C)CCn1c(=O)c(C2=NS(=O)(=O)C3=C(CCN(C(=O)Nc4ccccc4)C3)N2)c(O)c2ccccc21 | 0.975 | – | 99.4

Further lines, results first:

IC50 [1] [µM] | IC50 [2] [µM] | Activity [3] [%] | Compound
0.012 | 0.542 | 98.8 | O=c1c(C2=NS(=O)(=O)c3cc(O)ccc3N2)c(O)c2cccnc2n1CCC1CC1
0.132 | 1.16 | > 99.9 | CC(C)CCn1c(=O)c(C2=NS(=O)(=O)c3ccccc3N2)c(O)c2ccsc21
0.276 | > 20 | – | CC(C)CCn1c(=O)c(C2=NS(=O)(=O)C3=C(CCN(CC(=O)O)C3)N2)c(O)c2ccccc21
< 0.005 | 0.114 | 98.3 | CC(C)CCn1c(=O)c(C2=NS(=O)(=O)c3cc(O[C@H](C)C(N)=O)ccc3N2)c(O)c2sccc21
0.006 | 0.015 | 99.2 | CC(C)CCn1c(=O)c(C2=NS(=O)(=O)c3cc(OCC(N)=O)ccc3N2)c(O)c2ccccc21
< 0.005 | 0.047 | 98.3 | CC(C)CCn1c(=O)c(C2=NS(=O)(=O)c3cc(O[C@H](C)C(N)=O)ccc3N2)c(O)c2cccnc21
< 0.005 | 0.126 | 98.3 | CC(C)CCn1c(=O)c(C2=NS(=O)(=O)c3cc(OCC(N)=O)ccc3N2)c(O)c2sccc21
0.879 | – | 97.6 | COC(=O)CN1CCC2=C(C1)S(=O)(=O)N=C(c1c(O)c3ccccc3n(CCC(C)C)c1=O)N2
< 0.005 | 0.052 | 98.4 | CC(C)CCn1c(=O)c(C2=Nc3ccc(OCC(N)=O)cc3S(=O)(=O)N2)c(O)c2cccnc21
0.016 | 0.473 | 99 | CC(C)CCn1c(=O)c(C2=NS(=O)(=O)c3cc(O)ccc3N2)c(O)c2cccnc21
0.018 | 2.38 | 97.7 | CC(C)CCn1c(=O)c(C2=NS(=O)(=O)c3c[n+]([O-])ccc3N2)c(O)c2ccccc21
0.132 | 4.32 | – | CC(C)CCn1c(=O)c(C2=NS(=O)(=O)C3=C(CCN(CCC#N)C3)N2)c(O)c2ccccc21
0.289 | > 30 | 98.7 | CC(C)CCn1c(=O)c(C2=NS(=O)(=O)C3=C(CCN(CCc4nnn[nH]4)C3)N2)c(O)c2ccccc21
0.02 | 2.89 | 99.5 | CC(C)CCn1c(=O)c(C2=NS(=O)(=O)c3ccsc3N2)c(O)c2ccccc21
> 30 | – | – | CSc1ncc2c(O)c(C3=NS(=O)(=O)c4ccccc4N3)c(=O)n(CCC(C)C)c2n1
